The target in one experiment is MMP-13 (Homo sapiens, UniProt P45452). Put plainly: Inhibition of MMP-13. It is filed as biochemical. To be noted: human recombinant MMP-13, fluorogenic substrate 10 μM. On the procedure:
Human recombinant MMP-13 is activated with 2 mM APMA (p-aminophenyl mercuric acetate) for 1.5 hours, at 37° C. and is diluted to […] in assay buffer (50 mM Tris, pH 7.5, 200 mM sodium chloride, 5 mM calcium chloride, 20 μM zinc chloride, 0.02% brij). Twenty-five microliters of diluted enzyme is added per well of a 96 well microfluor plate. The enzyme is then diluted in a 1:4 ratio in the assay by the addition of inhibitor and substrate to give a final concentration in the assay of […].
10 mM stock solutions of inhibitors are made up in dimethyl sulfoxide and then diluted in assay buffer as per the inhibitor dilution scheme for inhibition of human collagenase (MMP-1): Twenty-five microliters of each concentration is added in triplicate to the microfluor plate. The final concentrations in the assay are 30 μM, 3 μM, 0.3 μM, and 0.03 μM.
Substrate (Dnp-Pro-Cha-Gly-Cys(Me)-His-Ala-Lys(NMA)-NH2) is prepared as for inhibition of human collagenase (MMP-1) and […] is added to each well to give a final assay concentration of 10 μM. Fluorescence readings (360 nm excitation; 450 emission) are taken at time 0 and every 5 minutes for 1 hour.
Positive controls consist of enzyme and substrate with no inhibitor and blanks consist of substrate only.
IC50 's are determined as per inhibition of human collagenase (MMP-1). […]

A further experiment deals with T1, MMP-1 (Homo sapiens, UniProt P03956).
T1 sequence (P03956 100-469): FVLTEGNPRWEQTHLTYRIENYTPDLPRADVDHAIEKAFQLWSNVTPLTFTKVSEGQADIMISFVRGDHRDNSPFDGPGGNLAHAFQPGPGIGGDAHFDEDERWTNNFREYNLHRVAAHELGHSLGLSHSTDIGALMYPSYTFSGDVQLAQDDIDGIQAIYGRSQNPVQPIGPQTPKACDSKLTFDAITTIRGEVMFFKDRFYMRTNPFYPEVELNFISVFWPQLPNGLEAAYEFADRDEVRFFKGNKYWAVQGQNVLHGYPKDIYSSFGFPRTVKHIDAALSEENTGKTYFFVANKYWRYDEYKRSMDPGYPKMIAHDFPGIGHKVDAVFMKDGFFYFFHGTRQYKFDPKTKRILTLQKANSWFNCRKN
Put plainly: Inhibition of Human Collagenase (MMP-1). To be noted: human recombinant collagenase, fluorogenic substrate 10 μM, room temperature. It is filed as biochemical. On the procedure: Biological Assay Inhibition of Human Collacienase (MMP-1)
Human recombinant collagenase is activated with trypsin using the following ratio: 10 μg trypsin per 100 μg of collagenase. The trypsin and collagenase are incubated at room temperature for 10 minutes then a five fold excess (50 μg/10 μg trypsin) of soybean trypsin inhibitor is added.
10 mM stock solutions of inhibitors are made up in dimethyl sulfoxide and then dilute using the following Scheme:
Twenty-five microliters of each concentration is then added in triplicate to appropriate wells of a 96 well microfluor plate. The final concentration of inhibitor will be a 1:4 dilution after addition of enzyme and substrate. Positive controls (enzyme, no inhibitor) are set up in wells D1-D6 and blanks (no enzyme, no inhibitors) are set in wells D7-D12.
Collagenase is diluted to 400 ng/ml and 25 μl is then added to appropriate wells of the microfluor plate. Final concentration of collagenase in the assay is 100 ng/ml. […]
Fluorescence readings (360 nm excitation, 460 nm emission) were taken at time 0 and then at 20 minute intervals. […]
Fluorescence vs time is then plotted for both the blank and collagenase containing samples (data from triplicate determinations is averaged). […] Data is plotted as inhibitor concentration vs % control (inhibitor fluorescence divided by fluorescence of collagenase alone×100). […]

This note sets out measurements from US6156798A, “Cyclobutyl-aryloxyarylsulfonylamino hydroxamic acid derivatives” (Pfizer Inc, priority 1999, dated 2000).

Molecules are shown by their SMILES.

On to `O=C(O)CCN(C1(C(=O)NO)CCC1)S(=O)(=O)c1ccc(Oc2ccc(F)cc2)cc1` [1 (R^1 = H), 3-[[4-(4-Fluorophenoxy)phenylsulfonyl]-1[(N-hydroxycarbamoyl)cyclobutyl]amino]propionic acid], for which the IC50 (commonly the concentration that gives 50% inhibition) at MMP-13 amounted to 0.6 nM; on MMP-1, 90 nM.
`CCOC(=O)CCN(C1(C(=O)NO)CCC1)S(=O)(=O)c1ccc(Oc2ccc(F)cc2)cc1` [1 (R^1 = ethyl), Ethyl 3-[[4-(4-fluorophenoxy)phenylsulfonyl]-1-[(N-hydroxycarbamoyl)cyclobutyl]amino]propionate]: the 50% inhibitory concentration (IC50) came out at 0.6 nM on MMP-13 and 18 nM at MMP-1.
